The values below come from publication PMC12302228 (RSC Medicinal Chemistry, 2025).

In brackets after ≈: the same amount, converted by molar mass. Read-outs that look alike come from different tables or passages of the source.

One series has as its system MCF7. Nature of the series: Antiproliferative activity, SRB assay. The class given is cell-based, human. Conditions: read-out: IC50 MCF7; 48 h of treatment; mean ± SEM. For orientation: In SRB staining, fixed cells bind dye roughly in proportion to their protein.
Another series deals with M21. Nature of the series: Antiproliferative activity, SRB assay. The format is cell-based, human. Conditions: read-out: IC50 M21; 48 h of treatment; mean ± SEM.
A further series relates to HT-29. Nature of the series: Antiproliferative activity, SRB assay. The format is cell-based, human. Conditions: read-out: IC50 HT-29; 48 h of treatment; mean ± SEM.
The subject of a further series is HT-1080. Nature of the series: Antiproliferative activity, SRB assay. The format is cell-based, human. Particulars: read-out: IC50 HT-1080; 48 h of treatment; mean ± SEM.
For another series, the system named is MOLM-13. Description: Antiproliferative activity, MTT assay. The class given is cell-based, human. Conditions: read-out: IC50 MOLM-13; 48 h of treatment; mean ± SEM. Background: Tetrazolium dyes change colour on reduction, which living cells bring about.
A further series deals with THP-1. Description: Antiproliferative activity, MTT assay. The format is cell-based, human. Particulars: mean ± SEM.
In a further series the test system is HL-60. Description: Antiproliferative activity, MTT assay. The class given is cell-based, human. Conditions: read-out: IC50 HL-60; 48 h of treatment; mean ± SEM.
For a further series, the system named is histone H2AX. Nature of the series: H2AX phosphorylation, immunofluorescence in M21 cells. Particulars: 24 h at 2-fold IC50. The format is cell-based, human.
Another series is described as follows: physchem. Conditions: ultrapure water, 37 °C, kinetic from dmso stock.
[1] abbreviates: read-out: IC50 THP-1, 48 h of treatment.

For orientation: IC50 means the concentration that inhibits the measured activity by half. By solubility is commonly meant the dissolved amount per volume that the medium holds. Turning to `CCNC(=O)Nc1ccc(S(=O)(=O)Oc2cccnc2I)cc1` [Compound 2, 2-Iodopyridin-3-yl 4-(3-ethylureido)benzenesulfonate], the IC50 in the series with MCF7 came out at 11 ± 1 µM; in the series with M21, 13 ± 2 µM; in the series on HT-29, 10.6 ± 0.9 µM; with HT-1080, 1.4 ± 0.1 µM; in the series on MOLM-13 it was 0.9 ± 0.3 µM; in the series on THP-1 (setting [1]), 3.8 ± 0.6 µM. The IC50 in the series on HL-60 came out at 25 ± 4 µM. Besides, the “Phosphorylation of H2AX into γH2AX (γH2AX foci)” value in the series with histone H2AX is on record as “promote the phosphorylation of H2AX into γH2AX”. Further, the solubility at 24 h in the series “physchem” is 57 ± 3 µg/mL (≈ 127 µM).

As to `CCNC(=O)Nc1ccc(S(=O)(=O)Oc2cccnc2C(C)C)cc1` [Compound 3, 2-Isopropylpyridin-3-yl 4-(3-ethylureido)benzenesulfonate], the concentration for half-maximal inhibition (IC50) turned out to be 19 ± 2 µM in the series on MCF7; 7 ± 1 µM with M21; 8.4 ± 0.7 µM with HT-29; 1.2 ± 0.2 µM with HT-1080; 0.8 ± 0.2 µM with MOLM-13; 1.5 ± 0.3 µM in the series on THP-1 (setting [1]). Moreover, the IC50 in the series on HL-60 is 29 ± 6 µM. Moreover, the “Phosphorylation of H2AX into γH2AX (γH2AX foci)” value with histone H2AX was “promote the phosphorylation of H2AX into γH2AX”. Further, in the series “physchem”, the solubility at 24 h is 40 ± 3 µg/mL (≈ 110 µM).

With `CCCNC(=O)Nc1ccc(S(=O)(=O)Oc2cnccc2C)cc1.Cl` [Compound 35, 4-Methylpyridin-3-yl 4-(3-propylureido)benzenesulfonate hydrochloride], the 50% inhibitory concentration (IC50) was 58 ± 8 µM in the series on MCF7; 56 ± 3 µM in the series with M21; 39 ± 2 µM in the series with HT-29; 21 ± 2 µM with HT-1080; 9.2 ± 0.8 µM in the series on MOLM-13; 5 ± 2 µM in the series on THP-1 (setting [1]). The IC50 in the series with HL-60 came to 16.3 ± 0.1 µM. Moreover, in “physchem”, the solubility at 24 h stood at 138 ± 2 µg/mL.

For `CCCNC(=O)Nc1ccc(S(=O)(=O)Oc2cccnc2Br)cc1` [Compound 5, 2-Bromopyridin-3-yl 4-(3-propylureido)benzenesulfonate], the IC50 in the series on MCF7 worked out at 13 ± 1 µM; in the series with M21 it was 24 ± 2 µM; in the series on HT-29, 17 ± 1 µM; in the series on HT-1080, 3.3 ± 0.2 µM; with MOLM-13, 2.6 ± 0.1 µM; with THP-1 (setting [1]) it was 5.9 ± 0.5 µM. Besides, the IC50 with HL-60 is 19 ± 2 µM. This molecule came in with a solubility at 24 h in the series “physchem” of 8 ± 1 µg/mL (≈ 19.3 µM).

Regarding `CCCNC(=O)Nc1ccc(S(=O)(=O)Oc2cccnc2C(C)C)cc1.Cl` [Compound 25, 2-Isopropylpyridin-3-yl 4-(3-propylureido)benzenesulfonate hydrochloride], the half-inhibitory concentration (IC50) amounted to 16 ± 1 µM with MCF7; 20 ± 1 µM in the series with M21; 15 ± 0.8 µM in the series with HT-29; 2.4 ± 0.2 µM with HT-1080; 1.9 ± 0.5 µM with MOLM-13; 2.4 ± 0.9 µM with THP-1 (setting [1]). Further, the IC50 with HL-60 stood at 8 ± 3 µM. The molecule further came in with a solubility at 24 h in “physchem” of 26 ± 3 µg/mL.

Consider `Cl.O=C(NCCCl)Nc1ccc(S(=O)(=O)Oc2cccnc2I)cc1` [Compound 28, 2-Iodopyridin-3-yl 4-(3-(2-chloroethyl)ureido)benzenesulfonate hydrochloride], for which the IC50 in the series on MCF7 came out at 13 ± 1 µM; in the series with M21, 15 ± 1 µM; with HT-29, 21 ± 1 µM; with HT-1080 it was 3.1 ± 0.2 µM; in the series with MOLM-13, 2.4 ± 0.4 µM; with THP-1 (setting [1]) it was 1.8 ± 0.7 µM. For the same molecule, the IC50 with HL-60 worked out at 19 ± 4 µM. The molecule also gave a solubility at 24 h in “physchem” of 37 ± 2 µg/mL.

As for `CCCNC(=O)Nc1ccc(S(=O)(=O)Oc2cnccc2I)cc1.Cl` [Compound 34, 4-Iodopyridin-3-yl 4-(3-propylureido)benzenesulfonate hydrochloride], the IC50 stood at 13 ± 1 µM with MCF7; 21 ± 2 µM with M21; 14 ± 1 µM in the series with HT-29; 5.9 ± 0.5 µM in the series on HT-1080; 2.7 ± 0.5 µM with MOLM-13; 2.1 ± 0.6 µM in the series with THP-1 (setting [1]). Moreover, the IC50 in the series on HL-60 is over 50 µM. Further, in the series “physchem”, the solubility at 24 h worked out at 130 ± 10 µg/mL.

Regarding `CCCNC(=O)Nc1ccc(S(=O)(=O)Oc2cnccc2C)cc1` [Compound 17, 4-Methylpyridin-3-yl 4-(3-propylureido)benzenesulfonate], the IC50 in the series on MCF7 came to 12 ± 1 µM; in the series on M21, 24 ± 1 µM; in the series with HT-29, 12 ± 1 µM; with HT-1080, 7.5 ± 0.5 µM; in the series on MOLM-13 it was 4 ± 0.6 µM; in the series on THP-1 (Homo sapiens, THP-1, 48 h, read-out: IC50 THP-1, 48 h of treatment), 7.3 ± 0.8 µM. Besides, in the series with HL-60, the IC50 was 43 ± 7 µM. The molecule also displayed a solubility at 24 h in “physchem” of 52 ± 2 µg/mL (≈ 149 µM).

For the molecule `Cl.O=C(NCCCl)Nc1ccc(S(=O)(=O)Oc2cccnc2Br)cc1` [Compound 27, 2-Bromopyridin-3-yl 4-(3-(2-chloroethyl)ureido)benzenesulfonate hydrochloride], the IC50 in the series on MCF7 came to 16 ± 1 µM; in the series with M21 it was 30 ± 2 µM; in the series on HT-29, 33 ± 1 µM; with HT-1080 it was 5.5 ± 0.4 µM; with MOLM-13, 4.8 ± 0.7 µM; with THP-1 (setting [1]), 4.9 ± 0.3 µM. In the series with HL-60, the IC50 was over 50 µM. Besides, in “physchem”, the solubility at 24 h turned out to be 189 ± 5 µg/mL.

Consider `CCNC(=O)Nc1ccc(S(=O)(=O)Oc2cccnc2Br)cc1` [Compound 1, 2-Bromopyridin-3-yl 4-(3-ethylureido)benzenesulfonate], for which the 50% inhibitory concentration (IC50) is 31 ± 3 µM in the series on MCF7; 12 ± 1 µM with M21; 9.7 ± 0.7 µM with HT-29; 2.1 ± 0.3 µM with HT-1080; 1.1 ± 0.2 µM in the series on MOLM-13; 7 ± 1 µM with THP-1 (setting [1]). In addition, in the series with HL-60, the IC50 stood at 40 ± 10 µM. For the same molecule, the solubility at 24 h in “physchem” worked out at 64 ± 1 µg/mL (≈ 160 µM).

For the molecule `CCNC(=O)Nc1ccc(S(=O)(=O)Oc2cnccc2I)cc1.Cl` [Compound 31, 4-Iodopyridin-3-yl 4-(3-ethylureido)benzenesulfonate hydrochloride], the 50% inhibitory concentration (IC50) was determined as 19 ± 3 µM in the series on MCF7; 11 ± 1 µM with M21; 11 ± 1 µM in the series with HT-29; 5.3 ± 0.4 µM in the series with HT-1080; 1.4 ± 0.4 µM in the series with MOLM-13; 2.2 ± 0.3 µM with THP-1 (setting [1]). For the same molecule, the 50% inhibitory concentration (IC50) in the series with HL-60 amounted to 32 ± 9 µM. The molecule further registered a solubility at 24 h in the series “physchem” of 165 ± 3 µg/mL.

As for `Cl.O=C(NCCCl)Nc1ccc(S(=O)(=O)Oc2cnccc2I)cc1` [Compound 36, 4-Iodopyridin-3-yl 4-(3-(2-chloroethyl)ureido)benzenesulfonate hydrochloride], the IC50 was 3.8 ± 0.3 µM with MCF7; 3.5 ± 0.4 µM in the series with M21; 2.3 ± 0.1 µM in the series with HT-29; 1.2 ± 0.2 µM in the series with HT-1080; 0.7 ± 0.2 µM with MOLM-13; 0.9 ± 0.2 µM in the series with THP-1 (setting [1]). The half-maximal inhibitory concentration (IC50) in the series with HL-60 was 3 ± 1 µM. In the series “physchem”, this molecule came in with a solubility at 24 h of 154 ± 7 µg/mL.

Turning to `CC(C)c1ncccc1OS(=O)(=O)c1ccc(NC(=O)NCCCl)cc1.Cl` [Compound 29, 2-Isopropylpyridin-3-yl 4-(3-(2-chloroethyl)ureido)benzenesulfonate hydrochloride], the IC50 stood at 14 ± 1 µM with MCF7; 9.7 ± 0.5 µM with M21; 10.5 ± 0.5 µM in the series with HT-29; 3.3 ± 0.2 µM in the series with HT-1080; 2.5 ± 0.9 µM in the series with MOLM-13; 2.6 ± 0.9 µM with THP-1 (setting [1]). The IC50 in the series on HL-60 came out at 13 ± 4 µM. Further, the solubility at 24 h in “physchem” worked out at 126 ± 5 µg/mL.

For the molecule `CCCNC(=O)Nc1ccc(S(=O)(=O)Oc2cccnc2I)cc1` [Compound 6, 2-Iodopyridin-3-yl 4-(3-propylureido)benzenesulfonate], the half-maximal inhibitory concentration (IC50) was 13 ± 1 µM in the series on MCF7; 17 ± 1 µM in the series with M21; 16 ± 1 µM in the series on HT-29; 2 ± 0.2 µM in the series with HT-1080; 2.2 ± 0.3 µM in the series with MOLM-13; 2.4 ± 0.1 µM in the series with THP-1 (setting [1]). For the same molecule, the IC50 in the series with HL-60 was 24 ± 5 µM. In “physchem”, this molecule showed a solubility at 24 h of 23 ± 2 µg/mL (≈ 49.9 µM).
